{
  "source": "patent US20250249001A1",
  "about": "“METHODS OF TREATING SUBSTANCE USE DISORDER WITH 4-(3-CYANOPHENYL)-6-PYRIDINYLPYRIMIDINE MGLU5 NEGATIVE ALLOSTERIC MODULATORS” (Tempero Bio, Inc., priority 2022, published 2025)",
  "key": {"[1]": {"test_system": "voluntary home-cage alcohol drinking by Wistar rats", "assay": "Home-cage alcohol drinking, repeated treatment (A-B-A design)", "format": "in vivo", "description": "(§1) Home-cage alcohol drinking method. Oral alcohol and water intake were examined using a two-bottle choice protocol, which is standard in the field and commonly used in our laboratory. Male Wistar rats (n=12) were first adapted to drinking from a 50 ml conical tube fitted with a standard stainless-steel ball bearing sipper tube that limits spillage. Then, two bottles were place on the cage daily. One bottle contained an alcohol solution and the other contained water. Bottles containing fresh solutions were weighed daily before and after a 24 hr access period. After drug treatment, bottles were weighed after 1 hr and 24 hrs of access. Each week, rats had 4-5 days of sweetened alcohol and water available and the remaining days only water.\n(§2) Briefly, rats were first exposed to alcohol (10% v/v)+sucrose (5% w/v). versus water in the two bottles. Then, over a period of 6-weeks, the concentrations of alcohol and sucrose were gradually adjusted to alcohol (8% v/v)+sucrose (2% w/v) to achieve intake of pharmacologically relevant doses of alcohol. Rats were maintained at this concentration for the duration of the experiment for both acute (3.1.a) and chronic (3.1.b) home-cage drinking studies. Use of sweetened alcohol solutions in preclinical research provides face validity to the binge-intoxication stage of alcohol addiction in humans where sweeteners are commonly added to alcohol.\nRepeated treatment with Compound 1. To evaluate effects of repeated treatment with Compound 1 on home-cage alcohol drinking, baseline intake of sweetened alcohol and water, and habituation to i.p. injections was conducted as described above in a separate group of male Wistar rats (n=12). During habituation to i.p. injections, rats were moved to a 7 day per week alcohol access schedule to allow for chronic daily treatment. Rats were then administered vehicle (4 consecutive days), Compound 1 (3 mg/kg, 7 consecutive days), then vehicle (4 consecutive days) according to an A-B-A experimental design for a total of 15 days. Access to alcohol was provided 1-hr after vehicle or Compound 1 injection. Alcohol and water intake were measured as described above after 1-hr and 24-hrs of access."}, "[2]": {"test_system": "voluntary home-cage alcohol drinking by Wistar rats", "assay": "Home-cage two-bottle choice alcohol drinking, acute treatment", "format": "in vivo", "description": "Animals: Male Wistar rats (Charles River Laboratories, INC) were used in these studies. Rat housing and testing was conducted at the University of North Carolina at Chapel Hill (UNC-CH) School of Medicine in a state-of-the-art rodent vivarium approved by the Association for Assessment and Accreditation of Laboratory Animal Care International (AAALAC). Rat health was monitored daily by study investigators and veterinarians in the Division of Comparative Medicine UNC. All experimental procedures were carried out in accordance with the NIH Guide to Care and Use of Laboratory Animals (Committee for the Update of the Guide for the Care and Use of Laboratory Animals, 2011) and institutional guidelines.\nRats were housed individually in standard Plexiglas cages with standard rodent food and water available ad libitum. Upon arrival from the vendor, rats were given 7 days to acclimate to the vivarium during which they were weighed and handled by an investigator each day to monitor general health and habituate them to human contact. Rats were then weighed each day within 1-h of experimental procedures to calculate drug dosages relative to body weight. […] The colony was maintained at […] on a 12-hour light/dark cycle, with the lights on from 10 AM-10 PM. All behavioral experiments were conducted during the light portion of the light cycle.\nas §1, §2\nCompound 1 treatment. After establishing baseline intake of sweetened alcohol and water, rats were habituated to i.p. injections. All rats (N=12) were administered 3 habituation injections of vehicle (10% w/v kolliphor in BCD (10%)) prior to the Compound 1 dose response curve and alcohol intake was measured. Then, the Compound 1 dose response curve was conducted with dose order randomized according to a modified Latin-Square design. Rats were given a minimum of 1-2 days between injections to ensure normal drinking was re-established in absence of drug administration. Each dose of Compound 1 (0-10 mg/kg) was administered via i.p. injection and rats were placed back in the home-cage for 1 hr prior to the return of sweetened alcohol and water. Alcohol intake was measured after 1-h and 24-hrs of access in grams by weighing the drinking bottles. Data were excluded from 1 rat that emptied both bottles fully each day without drinking the solutions; thus, results are presented for a final group of N=11 rats.\nEfficacy comparisons to MPEP and Naltrexone. […]"}},
  "data": [
    {"smiles": "N#Cc1cc(Cl)cc(-c2cc(-c3ccc(F)cn3)ncn2)c1", "note": "[Compound 1, 3-chloro-5-[6-(5-fluoropyridin-2-yl)pyrimidin-4-yl]benzonitrile]", "values": [
      {"measurement": "H2O intake, 1-hr access, averaged across the 3 experimental phases", "setting": "[1]; 3 mg/kg i.p. daily for 7 days", "value": "decreased water intake"},
      {"measurement": "H2O intake, 24-hrs access, averaged across the experimental phases", "setting": "[1]; 3 mg/kg i.p. daily for 7 days", "value": "reduction in H2O intake as compared to the first vehicle condition only"},
      {"measurement": "alcohol intake, 24-hr access, averaged over each treatment condition", "setting": "[1]; 3 mg/kg i.p. daily for 7 days", "value": "no effect"},
      {"measurement": "average alcohol intake over the 7-day treatment phase, 1-hr access, vs Veh-1 and Veh-2", "setting": "[1]; 3 mg/kg i.p. daily for 7 days", "value": "significantly decreased alcohol intake"},
      {"measurement": "H2O intake, 1-hr access, individual treatment days", "setting": "[1]; 3 mg/kg i.p. daily, days 5-11", "value": "failed to identify a significant change at a particular treatment day"},
      {"measurement": "H2O intake, 24-hrs access, individual treatment days", "setting": "[1]; 3 mg/kg i.p. daily, days 5-11", "value": "significant reductions in H2O intake at days 7 and 11"},
      {"measurement": "alcohol intake, 1-hr access, individual treatment days vs day 4 vehicle", "setting": "[1]; 3 mg/kg i.p. daily, days 5-11", "value": "reduced alcohol intake only on day 5"},
      {"measurement": "alcohol intake, 24-hr access, individual treatment days vs day 4 vehicle", "setting": "[1]; 3 mg/kg i.p. daily, days 5-11", "value": "reduced alcohol intake only on day 5"},
      {"measurement": "alcohol intake after 24-hrs of access vs vehicle", "setting": "[2]; 10 mg/kg i.p. acute", "value": "did not achieve statistical significance"},
      {"measurement": "dosage giving the greatest reduction in EtOH intake", "setting": "[2]; 1-hr access, dose range 0-10 mg/kg i.p.", "value": 3, "unit": "mg/kg"},
      {"measurement": "alcohol intake (EtOH g/kg/1-h) after 1-hr access vs vehicle control", "setting": "[2]; Compound 1 1, 3, and 10 mg/kg i.p. acute, 1 hr before access, sweetened alcohol, N=11", "value": "significantly decreased alcohol intake"},
      {"measurement": "alcohol intake after 24-hrs of access vs vehicle", "setting": "[2]; Compound 1 1 and 3 mg/kg i.p. acute", "value": "significantly decreased alcohol intake"},
      {"measurement": "alcohol intake at the 24-hr measurement interval, comparison of equivalent doses", "setting": "[2]; each drug 3 mg/kg i.p. acute", "value": "maintained efficacy"},
      {"measurement": "alcohol drinking at 1-hr of access vs vehicle control, positive control comparison", "setting": "[2]; each drug 3 mg/kg i.p. acute, N=11", "value": "significantly decreased alcohol drinking"}
    ]}
  ]
}
